The record followed here is patent publication US9617253B2, “Molecules having pesticidal utility, and intermediates, compositions, and processes, related thereto” (Dow AgroSciences LLC, priority 2015, dated 2017).

For assay [1], the system named is Beet Armyworm (Spodoptera exigua, LAPHEG). Put plainly: Bioassay on Beet Armyworm (BAW), 128-well diet tray assay. The format is in vivo. The note with it: 168 h, second instar BAW larvae, 50 μg/cm^2 on artificial diet, 25° C., five to seven days, average of eight wells, read-out: BAW % Control (or Mortality) rating. As for the experimental part: (§1) Certain molecules disclosed in this document were tested against BAW and CL using procedures described in the following examples. In the reporting of the results, the “BAW & CL Rating Table” was used (See Table Section).
Bioassays on BAW were conducted using a 128-well diet tray assay. One to five second instar BAW larvae were placed in each well (3 mL) of the diet tray that had been previously filled with 1 mL of artificial diet to which 50 μg/cm^2 of the test molecule (dissolved in 50 μL of 90:10 acetone-water mixture) had been applied (to each of eight wells) and then allowed to dry. Trays were covered with a clear self-adhesive cover, vented to allow gas exchange, and held at 25° C., 14:10 light-dark for five to seven days. Percent mortality was recorded for the larvae in each well; activity in the eight wells was then averaged. The results are indicated in the table entitled “Table ABC: Biological Results” (See Table Section).

Assay [2] relates to Cabbage Looper (Trichoplusia ni, TRIPNI). Kind of assay: Bioassay on Cabbage Looper (CL), 128-well diet tray assay. It counts as in vivo. The settings on record: 168 h, second instar CL larvae, 50 μg/cm^2 on artificial diet, 25° C., five to seven days, average of eight wells, read-out: CL % Control (or Mortality) rating. The procedure: as §1
Bioassays on CL were conducted using a 128-well diet tray assay. One to five second instar CL larvae were placed in each well (3 mL) of the diet tray that had been previously filled with 1 mL of artificial diet to which 50 μg/cm^2 of the test molecule (dissolved in 50 μL of 90:10 acetone-water mixture) had been applied (to each of eight wells) and then allowed to dry. Trays were covered with a clear self-adhesive cover, vented to allow gas exchange, and held at 25° C., 14:10 light-dark for five to seven days. Percent mortality was recorded for the larvae in each well; activity in the eight wells was then averaged. The results are indicated in the table entitled “Table ABC: Biological Results” (See Table Section).

The mortality is the percentage killed. In the case of `CCCc1ccc(C)cc1N1C(=O)CS/C1=N\C(=O)Nc1ccc(OCc2ncn(-c3ccc(OC(F)(F)F)cc3)n2)cc1OC` [F33, (Z)-1-(2-Methoxy-4-((1-(4-(trifluoromethoxy)phenyl)-1H-1,2,4-triazol-3-yl)methoxy)phenyl)-3-(3-(5-methyl-2-propylphenyl)-4-oxothiazolidin-2-ylidene)urea], the mortality at 50 µg/cm2 in assay [1] and in assay [2] was 50 to 100% throughout.
Turning to `CCCc1ccc(C)cc1N1C(=O)CS/C1=N\C(=O)Nc1ccc(OCc2ncn(-c3ccc(OC(F)(F)F)cc3)n2)nc1` [F45, (Z)-1-(3-(5-Methyl-2-propylphenyl)-4-oxothiazolidin-2-ylidene)-3-(6-((1-(4-(trifluoromethoxy)phenyl)-1H-1,2,4-triazol-3-yl)methoxy)pyridin-3-yl)urea], the mortality at 50 µg/cm2 is 0 to 50% in assay [1] and 0% in assay [2].
With `Cc1ccc(C(C)C)c(N2C(=O)CS/C2=N\C(=O)Nc2ccc(OCc3ncn(-c4ccc(OC(F)(F)F)cc4)n3)cc2C)c1` [F25, (Z)-1-(3-(2-Isopropyl-5-methylphenyl)-4-oxothiazolidin-2-ylidene)-3-(2-methyl-4-((1-(4-(trifluoromethoxy)phenyl)-1H-1,2,4-triazol-3-yl)methoxy)phenyl)urea], the mortality at 50 µg/cm2 in assay [1] and in assay [2] was 50 to 100% each time.
`CCCc1ccc(C)cc1N1C(=O)CS/C1=N\C(=O)Nc1ccc(OCc2ncn(-c3ccc(OC(F)(F)F)cc3)n2)c(Cl)c1` [F39, (Z)-1-(3-Chloro-4-((1-(4-(trifluoromethoxy)phenyl)-1H-1,2,4-triazol-3-yl)methoxy)phenyl)-3-(3-(5-methyl-2-propylphenyl)-4-oxothiazolidin-2-ylidene)urea]: the mortality at 50 µg/cm2 in assay [1] and in assay [2] was 50 to 100% in each case.
Turning to `Cc1ccc(C(C)C)c(N2C(=O)CS/C2=N\C(=O)Nc2ccc(OCc3ncn(-c4ccc(OC(F)(F)F)cc4)n3)cc2F)c1` [F16, (Z)-1-(2-Fluoro-4-((1-(4-(trifluoromethoxy)phenyl)-1H-1,2,4-triazol-3-yl)methoxy)phenyl)-3-(3-(2-isopropyl-5-methylphenyl)-4-oxothiazolidin-2-ylidene)urea], the mortality at 50 µg/cm2 in assay [1] and in assay [2] was 50 to 100% in each case.
In the case of `Cc1ccc(C(C)C)c(N2C(=O)CS/C2=N\C(=O)Nc2c(F)cc(OCc3ncn(-c4ccc(OC(F)(F)F)cc4)n3)cc2F)c1` [F18, (Z)-1-(2,6-Difluoro-4-((1-(4-(trifluoromethoxy)phenyl)-1H-1,2,4-triazol-3-yl)methoxy)phenyl)-3-(3-(2-isopropyl-5-methylphenyl)-4-oxothiazolidin-2-ylidene)urea], the mortality at 50 µg/cm2 in assay [1] and in assay [2] was 50 to 100% in each case.
As for `Cc1ccc(C(C)C)c(N2C(=O)CS/C2=N\C(=O)Nc2ccc(COc3ncn(-c4ccc(OC(F)(F)F)cc4)n3)c(F)c2)c1` [F3, (Z)-1-(3-Fluoro-4-(((1-(4-(trifluoromethoxy)phenyl)-1H-1,2,4-triazol-3-yl)oxy)methyl)phenyl)-3-(3-(2-isopropyl-5-methylphenyl)-4-oxothiazolidin-2-ylidene)urea], the mortality at 50 µg/cm2 in assay [1] and in assay [2] was 50 to 100% throughout.
With `COC(C)c1ccc(C)cc1N1C(=O)CS/C1=N\C(=O)Nc1ccc(OCc2ncn(-c3ccc(OC(F)(F)F)cc3)n2)cc1F` (centres unmarked) [F20, (Z)-1-(2-Fluoro-4-((1-(4-(trifluoromethoxy)phenyl)-1H-1,2,4-triazol-3-yl)methoxy)phenyl)-3-(3-(2-(1-methoxyethyl)-5-methylphenyl)-4-oxothiazolidin-2-ylidene)urea], the mortality at 50 µg/cm2 in assay [1] and in assay [2] was 50 to 100% in each case.
Turning to `CCCc1ccc(C)cc1N1C(=O)CS/C1=N\C(=O)Nc1ccc(OCc2ncn(-c3ccc(OC(F)(F)F)cc3)n2)cc1C` [F26, (Z)-1-(3-(5-Methyl-2-propylphenyl)-4-oxothiazolidin-2-ylidene)-3-(2-methyl-4-((1-(4-(trifluoromethoxy)phenyl)-1H-1,2,4-triazol-3-yl)methoxy)phenyl)urea], the mortality at 50 µg/cm2 in assay [1] and in assay [2] was 50 to 100% each time.
For `CCCc1ccc(C)cc1N1C(=O)CS/C1=N\C(=O)Nc1ccc(OCc2ncn(-c3ccc(OC(F)(F)F)cc3)n2)c(F)c1` [F36, (Z)-1-(3-Fluoro-4-((1-(4-(trifluoromethoxy)phenyl)-1H-1,2,4-triazol-3-yl)methoxy)phenyl)-3-(3-(5-methyl-2-propylphenyl)-4-oxothiazolidin-2-ylidene)urea], the mortality at 50 µg/cm2 in assay [1] and in assay [2] was 50 to 100% throughout.
As for `COCc1ccc(C)cc1N1C(=O)CS/C1=N\C(=O)Nc1ccc(OCc2ncn(-c3ccc(OC(F)(F)F)cc3)n2)c(F)c1` [F37, (Z)-1-(3-Fluoro-4-((1-(4-(trifluoromethoxy)phenyl)-1H-1,2,4-triazol-3-yl)methoxy)phenyl)-3-(3-(2-(methoxymethyl)-5-methylphenyl)-4-oxothiazolidin-2-ylidene)urea], the mortality at 50 µg/cm2 in assay [1] and in assay [2] was 50 to 100% in each case.
For the compound `CCCc1ccc(C)cc1N1C(=O)CS/C1=N\C(=O)Nc1ccc(OCc2ncn(-c3ccc(OC(F)(F)F)cc3)n2)cc1F` [F23, (Z)-1-(2-Fluoro-4-((1-(4-(trifluoromethoxy)phenyl)-1H-1,2,4-triazol-3-yl)methoxy)phenyl)-3-(3-(5-methyl-2-propylphenyl)-4-oxothiazolidin-2-ylidene)urea], the mortality at 50 µg/cm2 in assay [1] and in assay [2] was 50 to 100% in each case.
As to `COc1cc(NC(=O)/N=C2\SCC(=O)N2c2cc(C)ccc2C(C)C)ccc1COc1ncn(-c2ccc(OC(F)(F)F)cc2)n1` [F4, (Z)-1-(3-(2-Isopropyl-5-methylphenyl)-4-oxothiazolidin-2-ylidene)-3-(3-methoxy-4-(((1-(4-(trifluoromethoxy)phenyl)-1H-1,2,4-triazol-3-yl)oxy)methyl)phenyl)urea], the mortality at 50 µg/cm2 in assay [1] and in assay [2] was 50 to 100% each time.
For the compound `Cc1ccc(C(C)C)c(N2C(=O)CS/C2=N\C(=O)Nc2ccc(OCc3ncn(-c4ccc(OC(F)(F)F)cc4)n3)c(Cl)c2)c1` [F38, (Z)-1-(3-Chloro-4-((1-(4-(trifluoromethoxy)phenyl)-1H-1,2,4-triazol-3-yl)methoxy)phenyl)-3-(3-(2-isopropyl-5-methylphenyl)-4-oxothiazolidin-2-ylidene)urea], the mortality at 50 µg/cm2 in assay [1] and in assay [2] was 50 to 100% in each case.
`Cc1ccc(C(C)C)c(N2C(=O)CS/C2=N\C(=O)Nc2ccc(COc3ncn(-c4ccc(OC(F)(F)F)cc4)n3)cc2)c1` [F1, (Z)-1-(3-(2-isopropyl-5-methylphenyl)-4-oxothiazolidin-2-ylidene)-3-(4-(((1-(4-(trifluoromethoxy)phenyl)-1H-1,2,4-triazol-3-yl)oxy)methyl)phenyl)urea]: the mortality at 50 µg/cm2 in assay [1] and in assay [2] was 50 to 100% throughout.
With `Cc1ccc(C(C)C)c(N2C(=O)CS/C2=N\C(=O)Nc2ccc(OCc3ncn(-c4ccc(OC(F)(F)F)cc4)n3)cc2)c1` [F15, (Z)-1-(3-(2-Isopropyl-5-methylphenyl)-4-oxothiazolidin-2-ylidene)-3-(4-((1-(4-(trifluoromethoxy)phenyl)-1H-1,2,4-triazol-3-yl)methoxy)phenyl)urea], the mortality at 50 µg/cm2 in assay [1] and in assay [2] was 50 to 100% each time.
Consider `Cc1cc(N2C(=O)CS/C2=N\C(=O)Nc2ccc(COc3ncn(-c4ccc(OC(F)(F)F)cc4)n3)cc2F)c(C(C)C)cc1F` [F12, (Z)-1-(3-(4-Fluoro-2-isopropyl-5-methylphenyl)-4-oxothiazolidin-2-ylidene)-3-(2-fluoro-4-(((1-(4-(trifluoromethoxy)phenyl)-1H-1,2,4-triazol-3-yl)oxy)methyl)phenyl)urea], for which the mortality at 50 µg/cm2 in assay [1] and in assay [2] was 50 to 100% throughout.
As to `COCc1ccc(C)cc1N1C(=O)CS/C1=N\C(=O)Nc1ccc(OCc2ncn(-c3ccc(OC(F)(F)F)cc3)n2)cc1C` [F27, (Z)-1-(3-(2-(Methoxymethyl)-5-methylphenyl)-4-oxothiazolidin-2-ylidene)-3-(2-methyl-4-((1-(4-(trifluoromethoxy)phenyl)-1H-1,2,4-triazol-3-yl)methoxy)phenyl)urea], the mortality at 50 µg/cm2 in assay [1] and in assay [2] was 50 to 100% in each case.
For the compound `CCCc1ccc(C)cc1N1C(=O)CS/C1=N\C(=O)Nc1cc(F)c(OCc2ncn(-c3ccc(OC(F)(F)F)cc3)n2)c(F)c1` [F42, (Z)-1-(3,5-Difluoro-4-((1-(4-(trifluoromethoxy)phenyl)-1H-1,2,4-triazol-3-yl)methoxy)phenyl)-3-(3-(5-methyl-2-propylphenyl)-4-oxothiazolidin-2-ylidene)urea], the mortality at 50 µg/cm2 in assay [1] and in assay [2] was 50 to 100% each time.
